Article PMC5601625, “Defining a therapeutic window for kinase inhibitors in leukemia to avoid neutropenia” (Oncotarget, 2017)
Entries after “also recorded” stand apart in the source; their conditions may differ. Read-outs that look alike come from different tables or passages of the source. Values belong to the molecule of their own block, whether it stands above or below them.

Legend:
[1] = system: human peripheral blood neutrophils; assay: Human neutrophil viability by propidium iodide exclusion, flow cytometry; details: for sensitivity of human neutrophils: G-CSF or GM-CSF primed 1 h, treated 18 h, dose range; for sensitivity of human neutrophils at 1μM: 18 h
Experimental: Figure 3 Assessment of human neutrophil viability in response to kinase inhibitor treatment Human peripheral blood neutrophils from three healthy donors were primed with G-CSF or GM-CSF for 1 hour before addition of selected kinase inhibitors (as shown) or DMSO (control) at concentrations as indicated. Neutrophil viability was assessed after 18 hours of treatment, by propidium iodide exclusion measured by flow cytometry. Mean ± SEM shown.
Donors were 18 years of age or older and had not taken anti-inflammatory medications during the 2 weeks before donating. […] Human neutrophils were then isolated on a three-layer Percoll gradient as described for mouse bone marrow neutrophils as described. […] Neutrophils were resuspended in DMEM/10%FBS, and primed with 10 ng/mL recombinant human G-CSF (Amgen) or 10 ng/mL recombinant human GM-CSF (Leukine, Sargramostim) for 1 h. Compounds or DMSO carrier were added for […]. Viability was assessed by staining neutrophils with propidium iodide and analyzing on a BD Fortessa.

[2] = system: panel of human leukemia cell lines; assay: Cell Titer Glo cell viability assay, 48 h, statements across the whole panel; details: for cytotoxicity to leukemia cell lines: 12 leukemia cell lines
Experimental: (§1) The activity of the kinase inhibitor collection against a panel of human leukemia cell lines was determined in cell viability assays run over 48 h using the Cell Titer Glo reagent.
(§2) Figure 1 Effects of kinase inhibition on the proliferation of leukemia cells A. Human leukemia cell lines were treated with duplicate serial dilutions of kinase inhibitors and the effect on cell viability was determined by Cell Titer Glo assay after 48 hours. Data shown represents the mean IC50 of each condition from 2 independent experiments. HL-60 cells were treated with serial dilutions of mTor/PI3K B. and MEK C. inhibitors and the effect on cell viability was determined after 48 hours. Data shown is the mean ± SEM of 3 independent experiments.
(§3) Leukemia and lymphoma cell lines were grown in RPMI containing 10% FCS. […] Cell lines are routinely tested for mycoplasma and genotyped by short tandem repeating (STR) profiling to confirm identity.
(§4) Compounds were obtained from SynMedChem and dissolved at […] in DMSO. Serial 2-fold dilutions of each compound were prepared in DMSO using a liquid handling robot (Janus, Perkin Elmer). Each dilution (100nL) was transferred to duplicate tissue culture plates containing 50 μL of media containing 5 × 10^3 cells using a 384 well pin tool. Cells were incubated for 48 h and cell viability was determined using Cell Titer Glow reagents as described by the manufacturer (Promega). Data was acquired using a luminescent plate reader (Envision, Perkin Elmer) and analysed using Activity Base (IDBS, Guilford, UK) and visualised using Spotfire (TIBCO, Palo Alto, CA) as described previously. Each cell line was assayed in independent experiments on at least two occasions. […] Serial 2-fold dilutions of each compound were prepared in media containing 0.2% DMSO and 50 μl of each dilution was added to 10^4 cells in 50 μl of media. Cells were incubated for 48 h and cell viability was determined using Cell Titer Glow assay as described above.

[3] = system: primary murine myeloid HPCs (lin-c-Kit+Sca-1- cells); assay: Live cell imaging viability of hematopoietic myeloid progenitor cells
Source text: (C & D) Dose-dependent effects of common chemotherapeutics on GM-CSF-primed primary murine myeloid HPCs C. or GM-CSF-primed primary murine bone-marrow neutrophils D. as assessed by live cell imaging analysis (concentrations as marked). E. Comparison of G-CSF (red/orange) or GM-CSF (blue) priming of myeloid HPCs before treatment with chemotherapeutics as assessed by live cell imaging (concentrations as marked). […] Mean ± SEM with n = 3 independent samples. * p < 0.05.
For purification of myeloid progenitor cells, bone marrow cells were collected in DMEM/10% FCS. After red cell lysis, cells were stained with biotin-conjugated antibodies against Ter119, Gr-1, Mac-1, B220, CD4, CD8 and IL-7Rα and incubated with streptavidin-microbeads (Miltenyi Biotech). Lineage positive cells were depleted by magnetic separation using MACS LS columns and QuadroMACS^TM separator magnets (Miltenyi Biotech). Hematopoietic myeloid progenitor cells that were propidium iodide (PI) negative, lineage-negative, Sca-1 negative and c-Kit positive, were sorted and collected by flow cytometry on a FACSAria or Diva (BD Biosciences). For imaging studies, cells were resuspended in StemPro-34 SFM (Invitrogen). Cells were cultured in 10 ng/mL human G-CSF (Neupogen, Amgen), 10 ng/mL recombinant mouse GM-CSF or 10 ng/mL recombinant human GM-CSF.
The MetaMorph script is available upon request.

[4] = system: primary murine bone-marrow neutrophils; assay: Live cell imaging viability of primary bone-marrow neutrophils; details: for effect of chemotherapeutics on neutrophil viability: GM-CSF-primed, dose-dependent, Figure 5D; for effect on mouse neutrophil viability (words): G-CSF- or GM-CSF-primed, inhibitors at 1 μM, over 24 hours
Source text: Using a high-throughput live cell imaging approach reported previously [15], we examined the effect of the kinase inhibitors on the viability of bone marrow neutrophils to determine their potential to cause neutropenia (Figure 2). Because G-CSF and GM-CSF are dominant regulators of granulopoiesis and neutrophil survival, and are commonly used in a clinical setting to mobilize hematopoietic stem cells into the blood and increase neutrophil production [27–31], we treated cells with these cytokines immediately prior to drug exposure. The addition of either cytokine prevents constitutive neutrophil apoptosis thereby increasing the window for detection of changes in viability induced by drug treatments.
For all above, data represent mean ± SEM from three independent samples.
Mouse bone marrow neutrophils were prepared as described [15]. Neutrophils were resuspended in phenol red-free DMEM/10% FBS for imaging studies. The purity of neutrophil preparations was routinely 96% ± 4% (Mean ± SD, n = 50) as assessed by cytology following May-Grünwald/Giemsa staining.
Kinase inhibitors were purchased from SYN kinase (Melbourne, Australia) and were used at 1 μM, unless otherwise specified, with dilutions performed in assay buffer containing 0.1% DMSO.
Viability was monitored using 2 μg/mL PI (Sigma). Images were captured every 30-60 min by the Zeiss Axiovert 200M Microscope at 37 °C/10% CO2. Quantitative analysis was performed using a custom-scripted MetaMorph (Molecular Devices) journal suite incorporating the count nuclei function, reconstruction & subtraction functions and Integrated Morphometry Analysis to select and analyze cells of interest.

JURKAT = assay: Cell Titer Glo cell viability assay, 48 h; type: cell-based, human; details: 48 h, mean of 2 independent experiments, 0 = less than 10 nM, cell line not given, read-out: IC50 of inhibitors on cell lines, m (mean)
Experimental: as §1
as §2, with “Data shown represents the mean IC50 of each condition from 2 independent experiments.” left out
as §3, §4

HL-60 = assay: Cell Titer Glo cell viability assay, 48 h; type: cell-based, human; details: 48 h, mean of 2 independent experiments, 0 = less than 10 nM, cell line not given, read-out: IC50 of inhibitors on cell lines, m (mean)
Experimental: as §1
as §2, with “Data shown represents the mean IC50 of each condition from 2 independent experiments.” left out
as §3, §4

MV4;11 = assay: Cell Titer Glo cell viability assay, 48 h; type: cell-based, human; details: 48 h, mean of 2 independent experiments, 0 = less than 10 nM, cell line not given, read-out: IC50 of inhibitors on cell lines, m (mean)
Experimental: as §1
as §2, with “Data shown represents the mean IC50 of each condition from 2 independent experiments.” left out
as §3, §4

EOL-1 = assay: Cell Titer Glo cell viability assay, 48 h; type: cell-based, human; details: 48 h, mean of 2 independent experiments, 0 = less than 10 nM, cell line not given, read-out: IC50 of inhibitors on cell lines, m (mean)
Experimental: as §1
as §2, with “Data shown represents the mean IC50 of each condition from 2 independent experiments.” left out
as §3, §4

HEL.92.1.7 = assay: Cell Titer Glo cell viability assay, 48 h; type: cell-based, human; details: 48 h, mean of 2 independent experiments, 0 = less than 10 nM, cell line not given, read-out: IC50 of inhibitors on cell lines, m (mean)
Experimental: as §1
as §2, with “Data shown represents the mean IC50 of each condition from 2 independent experiments.” left out
as §3, §4

K562 = assay: Cell Titer Glo cell viability assay, 48 h; type: cell-based, human; details: 48 h, mean of 2 independent experiments, 0 = less than 10 nM, cell line not given, read-out: IC50 of inhibitors on cell lines, m (mean)
Experimental: as §1
as §2, with “Data shown represents the mean IC50 of each condition from 2 independent experiments.” left out
as §3, §4

U937 = assay: Cell Titer Glo cell viability assay, 48 h; type: cell-based, human; details: 48 h, mean of 2 independent experiments, 0 = less than 10 nM, cell line not given, read-out: IC50 of inhibitors on cell lines, m (mean)
Experimental: as §1
as §2, with “Data shown represents the mean IC50 of each condition from 2 independent experiments.” left out
as §3, §4

THP-1 = assay: Cell Titer Glo cell viability assay, 48 h; type: cell-based, human; details: 48 h, mean of 2 independent experiments, 0 = less than 10 nM, cell line not given, read-out: IC50 of inhibitors on cell lines, m (mean)
Experimental: as §1
as §2, with “Data shown represents the mean IC50 of each condition from 2 independent experiments.” left out
as §3, §4

KU-812 = assay: Cell Titer Glo cell viability assay, 48 h; type: cell-based, human; details: 48 h, mean of 2 independent experiments, 0 = less than 10 nM, cell line not given, read-out: IC50 of inhibitors on cell lines, m (mean)
Experimental: as §1
as §2, with “Data shown represents the mean IC50 of each condition from 2 independent experiments.” left out
as §3, §4

MEG-01 = assay: Cell Titer Glo cell viability assay, 48 h; type: cell-based, human; details: 48 h, mean of 2 independent experiments, 0 = less than 10 nM, cell line not given, read-out: IC50 of inhibitors on cell lines, m (mean)
Experimental: as §1
as §2, with “Data shown represents the mean IC50 of each condition from 2 independent experiments.” left out
as §3, §4

MOLT4 = assay: Cell Titer Glo cell viability assay, 48 h; type: cell-based, human; details: 48 h, mean of 2 independent experiments, 0 = less than 10 nM, cell line not given, read-out: IC50 of inhibitors on cell lines, m (mean)
Experimental: as §1
as §2, with “Data shown represents the mean IC50 of each condition from 2 independent experiments.” left out
as §3, §4

OCI-AML3 = assay: Cell Titer Glo cell viability assay, 48 h; type: cell-based, human; details: 48 h, mean of 2 independent experiments, 0 = less than 10 nM, cell line not given, read-out: IC50 of inhibitors on cell lines, m (mean)
Experimental: as §1
as §2, with “Data shown represents the mean IC50 of each condition from 2 independent experiments.” left out
as §3, §4

[5] = cited from earlier work
[6] = Homo sapiens, read-out: IC50 across most of the cell lines examined

Structure (SMILES): Cc1ccc([N+](=O)[O-])cc1S(=O)(=O)N(C)/N=C/c1cnc2ccc(Br)cn12 [PIK-75]
- sensitivity of human neutrophils [1]: sensitive
- cytotoxicity to leukemia cell lines [2]: potently cytotoxic to all lines examined
- IC50 ([2]; read-out: IC50 across most of the cell lines examined, Cell Titer Glo, most of 12 leukemia lines): ≤ 10 nM
- effect of kinase inhibitors on HPC viability ([3]; G-CSF- or GM-CSF-primed, 1 μM, over 24 hours): active against both G-CSF- and GM-CSF-treated HPC
- EC50 ([4]; read-out: EC50 neutrophil viability, Mcl-1+/-, Mcl-1+/- neutrophils, 12 hour time-point): 57 nM
- EC50 ([4]; read-out: EC50 neutrophil viability, wild-type, WT neutrophils, 12 hour time-point): 228 nM
- IC50 (JURKAT): 90 nM
- IC50 (HL-60): 60 nM
- IC50 (MV4;11): 10 nM
- IC50 (EOL-1): 40 nM
- IC50 (HEL.92.1.7): 80 nM
- IC50 (K562): 330 nM
- IC50 (U937): 60 nM
- IC50 (THP-1): 100 nM
- IC50 (KU-812): 140 nM
- IC50 (MEG-01): 290 nM
- IC50 (MOLT4): 130 nM
- IC50 (OCI-AML3): 100 nM

Structure (SMILES): CC(=O)O[C@@]12CO[C@@H]1C[C@H](O)[C@@]1(C)C(=O)[C@H](O)C3=C(C)[C@@H](OC(=O)[C@H](O)[C@@H](NC(=O)OC(C)(C)C)c4ccccc4)C[C@@](O)([C@@H](OC(=O)c4ccccc4)[C@H]21)C3(C)C [docetaxel]
- effect of chemotherapeutics on HPC viability [3]: no effects
- effect of chemotherapeutics on neutrophil viability [4]: no effects
- neutropenia in the clinic [5]: induce neutropenia in the clinic

- IC50 [2, 6]: ≤ 10 nM
Structure (SMILES): Cn1c(=O)n(-c2ccc(C(C)(C)C#N)cc2)c2c3cc(-c4cnc5ccccc5c4)ccc3ncc21 [BEZ-235]
- sensitivity of human neutrophils at 1μM [1]: not sensitive
- sensitivity of human neutrophils [1]: sensitive
- cytotoxicity to leukemia cell lines [2]: potently cytotoxic to all lines examined
- effect on mouse neutrophil viability (words) [4]: minimal impact

Structure (SMILES): N.N.O=C([O-])C1(C(=O)[O-])CCC1.[Pt+2] [carboplatin]
- effect of chemotherapeutics on HPC viability ([3]; GM-CSF-primed, dose-dependent, Figure 5C): no effects
- effect of chemotherapeutics on neutrophil viability [4]: no effects
- neutropenia in the clinic [5]: induce neutropenia in the clinic

- IC50 [2, 6]: ≤ 10 nM
Structure (SMILES): NC(=O)Nc1cc(-c2cccc(F)c2)sc1C(=O)N[C@H]1CCCNC1 [AZD7762]
- sensitivity of human neutrophils at 1μM [1]: not sensitive
- sensitivity of human neutrophils [1]: sensitive
- cytotoxicity to leukemia cell lines [2]: potently cytotoxic to all lines examined

- IC50 (JURKAT; Homo sapiens): 160 nM
- IC50 (HL-60; Homo sapiens): 100 nM
- IC50 (MV4;11; Homo sapiens): 150 nM
- IC50 (K562; Homo sapiens): 720 nM
- IC50 (U937; Homo sapiens, U-937): 70 nM
- IC50 (THP-1; Homo sapiens): 140 nM
- IC50 (MOLT4; Homo sapiens, MOLT-4): 290 nM
- IC50 (OCI-AML3; Homo sapiens, OCI-AML-3): 190 nM
Structure (SMILES): CC(C)(C)c1cnc(CSc2cnc(NC(=O)C3CCNCC3)s2)o1 [SNS-032]
- sensitivity of human neutrophils [1]: sensitive
- effect on mouse neutrophil viability (words) [4]: induced rapid cell death; also recorded: significant impact on neutrophil viability
- EC50 ([4]; Mus musculus, Neutrophil, 12 h, read-out: EC50 neutrophil viability, Bak-/- Bax deficient): > 1000 nM
- EC50 ([4]; Mus musculus, Neutrophil, 12 h, read-out: EC50 neutrophil viability, Mcl-1+/-): 80 nM
- EC50 ([4]; Mus musculus, Neutrophil, 12 h, read-out: EC50 neutrophil viability, wild-type): 182 nM
- EC50 ([4]; Mus musculus, Neutrophil, read-out: EC50 neutrophil viability, G-CSF primed): 194 nM
- EC50 ([4]; Mus musculus, Neutrophil, read-out: EC50 neutrophil viability, GM-CSF primed): 218 nM
- dose-limiting side-effect in patients ([5]; patients with chronic lymphocytic leukemia and multiple myeloma): neutropenia as the dose-limiting side-effect
- IC50 (EOL-1; Homo sapiens, EOL1): 90 nM
- IC50 (HEL.92.1.7; Homo sapiens): 1330 nM
- IC50 (KU-812; Homo sapiens, KU812): 610 nM
- IC50 (MEG-01; Homo sapiens): 580 nM

Structure (SMILES): CC[C@@H]1C(=O)N(C)c2cnc(Nc3ccc(C(=O)NC4CCN(C)CC4)cc3OC)nc2N1C1CCCC1 [(R)-BI-2536]
- sensitivity of human neutrophils at 1μM [1]: not sensitive
- sensitivity of human neutrophils [1]: sensitive
- cytotoxicity to leukemia cell lines [2]: potently cytotoxic to all lines examined
- IC50 ([2]; Homo sapiens, read-out: IC50 across all cell lines examined): < 300 nM
- IC50 [2, 6]: ≤ 10 nM
